The supplement of paper PMC11451515

Tests used:
Assay in all cases: AUC of viability dose-response curve (% viability x log10 dose units); higher = less sensitive
Conditions in all cases: 48 h
SEM cells = test system: SEM cells
Outline: (§1)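 Viability of medium-adapted leukemia cells was measured by CellTiter-Glo One luminescence after 48 h at 37°C with library compounds in DMSO. Doses were 11 threefold steps from 47 μM to 0.79 nM, in 1536-well plates at 500 or 1000 cells/well. Signals were normalised per plate to DMSO and cell-free wells and fitted with a four-parameter log-logistic model on log10 dose. Area under the curve was integrated by trapezoidal rule, with curves exceeding full viability scaled and failed quality-control curves removed.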

NOMO1 = test system: NOMO1
Outline: as §1

P12-Ichikawa = test system: P12-Ichikawa
Outline: as §1

[1] = RPMI 5 mM glucose + 10% dialyzed FBS

| SMILES | AUC of viability dose-response curve (SEM cells; HPLM + 10% dialyzed FBS) | AUC of viability dose-response curve (SEM cells; RPMI 5 mM glucose + 10% FBS) | AUC of viability dose-response curve (SEM cells; [1]) | AUC of viability dose-response curve (NOMO1; HPLM + 10% dialyzed FBS) | AUC of viability dose-response curve (NOMO1; RPMI 5 mM glucose + 10% FBS) | AUC of viability dose-response curve (NOMO1; [1]) | AUC of viability dose-response curve (P12-Ichikawa; HPLM + 10% dialyzed FBS) | AUC of viability dose-response curve (P12-Ichikawa; RPMI 5 mM glucose + 10% FBS) | AUC of viability dose-response curve (P12-Ichikawa; [1]) |
| --- | --- | --- | --- | --- | --- | --- | --- | --- | --- |
| CCOC\1=C(/C(=O)NC2=CC=C(OC3=C(Cl)C(=NC=C3)N)C(=C2)F)C(=O)N(\C=C1)C4=CC=C(F)C=C4 | 328 | 309 | 300 | 415 | 446 | 440 | 444 | 447 | 431 |
| CC(=O)OCC(CCn1cnc2cnc(N)nc21)COC(C)=O | 445 | 434 | 440 | 454 | 464 | 462 | 470 | 470 | 465 |
| OC[C@H]1O[C@H](C[C@@H]1O)N2\C=C(\I)C(=O)NC2=O | 452 | 454 | 386 | 456 | 470 | 446 | 435 | 462 | 472 |
| CCC1=C2CN3C(=O)\C4=C(/C=C3/C2=NC5=CC=C(O)C=C15)[C@@](O)(CC)C(=O)OC4 | 158 | 137 | 140 | 226 | 211 | 218 | 109 | 102 | 105 |
| N[S+](=O)([O-])c1cc2c(cc1Cl)NCN[S+]2(=O)[O-] | 450 | 442 | 412 | 468 | 477 | 470 | 466 | 468 | 474 |
| O=C(O)CCCc1ccc(N(CCCl)CCCl)cc1 | 458 | 451 | 458 | 468 | 464 | 465 | 455 | 456 | 462 |
| Cc1n[nH]c2ccc(-c3cncc(OC[C@@H](N)Cc4c[nH]c5ccccc45)c3)cc12 | 245 | 286 | 265 | 270 | 310 | 280 | 309 | 294 | 290 |
| CN1C(=O)C(=C/2N(C(=O)N(C3CC3)C(=O)C2=C1/NC4=CC=C(I)C=C4F)C5=CC=CC(=C5)NC(C)=O)\C | 325 | 323 | 318 | 249 | 255 | 255 | 354 | 340 | 355 |
| O=C(O)C(=O)Nc1cccc(-c2nnn[nH]2)c1 | 422 | 451 | 462 | 463 | 457 | 452 | 455 | 477 | 470 |
| CCOC(=O)c1c(/C(C#N)=C\N)c2ccc(Cl)c(Cl)c2n1C | 412 | 427 | 408 | 442 | 395 | 407 | 432 | 412 | 429 |
| C=C1C(=O)O[C@@H]2[C@H]3O[C@]3(C)CC/C=C(\C)CC[C@@H]12 | 328 | 275 | 329 | 360 | 375 | 386 | 347 | 358 | 351 |
| Cc1ccc(Nc2nccc(N(C)c3ccc4c(C)n(C)nc4c3)n2)cc1[S+](N)(=O)[O-] | 400 | 371 | 388 | 462 | 464 | 476 | 450 | 444 | 450 |
| CCCCCCCN(CC)CCCC(O)c1ccc(NS(C)(=O)=O)cc1.CCCCCCCN(CC)CCCC(O)c1ccc(NS(C)(=O)=O)cc1.O=C(O)/C=C/C(=O)O (stereo not given) | 446 | 421 | 443 | 471 | 463 | 464 | 460 | 457 | 461 |
| CCNC(=O)c1noc(-c2cc(C(C)C)c(O)cc2O)c1-c1ccc(CN2CCOCC2)cc1 | 225 | 224 | 232 | 253 | 240 | 248 | 333 | 302 | 312 |
| N#C[C@@H]1C[C@@H]2C[C@@H]2N1C(=O)[C@@H](N)C12CC3CC(CC(O)(C3)C1)C2 | 465 | 426 | 455 | 400 | 466 | 450 | 462 | 433 | 451 |
